This note sets out measurements from BindingDB's records for doi:10.1016/j.ejmech.2020.113116 (University of Pisa, 2021).

Experiment [1] in a line: Positive allosteric modulator activity at human CB2R expressed in CHO-K1 cell membrane assessed as CP55940 EC50 for [35S]GTPgammaS binding at 100 nM measured after 90 mins by liquid scintillation counting analysis (Rvb = 1.9 nM).
Experiment [2] can be described thus: Positive allosteric modulator activity at human CB2R expressed in CHO-K1 cell membrane assessed as CP55940 EC50 for [35S]GTPgammaS binding at 1 nM measured after 90 mins by liquid scintillation counting analysis (Rvb = 1.9 nM). In general terms: Binding of GTPγS marks nucleotide exchange on a G protein.

As a reminder, the EC50 is the midpoint of the concentration-response curve.

As to `Cc1c(Br)cn(Cc2ccccc2Cl)c(=O)c1NC(=O)C1CCCCCC1`, the values for the half-maximal effective concentration (EC50) in experiment [1] and in experiment [2] were 2.4 nM and 2.6 nM, respectively.
As to `Cc1c(Br)cn(Cc2ccccc2F)c(=O)c1NC(=O)C1CCCCCC1`, the EC50 turned out to be 7 nM in experiment [1] and 3.4 nM in experiment [2].
